Measurements from ChEMBL document CHEMBL1201862, “PubChem BioAssay data set” (2004).
Activity calls are given as the source filed them. For most assays here, no stated cut-off is given here; in the data, actives have a measured EC50 and inactives only a lower limit.

Columns and labels:
[1] = molecular target: T1, Heat shock factor protein 1 (Mus musculus, UniProt P38532); experiment: HSF1 potentiators in luciferase reporter cells, confirmation, cell-based, NIH3T3, luminescence, dose retest (AID 435004); type: functional;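 further: stress induced by proteasome inhibitor MG132 added 30 min after compound; luciferase reporter driven by HSF1 response element in NIH3T3 cells; actives raise luminescence as potentiators of the MG132 stress response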
T1 sequence (P38532 whole entry): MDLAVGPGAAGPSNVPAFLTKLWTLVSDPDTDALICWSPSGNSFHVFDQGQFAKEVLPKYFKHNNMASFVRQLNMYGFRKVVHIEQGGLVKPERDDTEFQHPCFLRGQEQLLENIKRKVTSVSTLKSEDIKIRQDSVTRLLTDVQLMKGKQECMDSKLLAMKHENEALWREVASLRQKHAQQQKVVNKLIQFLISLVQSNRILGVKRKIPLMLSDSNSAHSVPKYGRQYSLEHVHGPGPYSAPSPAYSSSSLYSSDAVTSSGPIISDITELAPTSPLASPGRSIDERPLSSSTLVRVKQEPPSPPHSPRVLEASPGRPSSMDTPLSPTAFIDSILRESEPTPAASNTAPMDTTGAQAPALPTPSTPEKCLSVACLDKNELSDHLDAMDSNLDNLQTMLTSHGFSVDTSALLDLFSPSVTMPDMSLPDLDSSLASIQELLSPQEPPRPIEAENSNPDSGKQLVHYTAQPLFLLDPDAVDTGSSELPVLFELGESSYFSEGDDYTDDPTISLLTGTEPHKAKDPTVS

[2] = Luminescence Cell-Based Dose Retest to Confirm Inhibitors of Cancer Stem Cells. [Related pubchem assays (depositor defined):AID2717, AID2721]; type: functional; details: Homo sapiens
[3] = cytotoxicity toward NIH3T3 fibroblasts, dose response, counter-screen, cell-based, ATP luminescence, mouse fibroblasts (AID 2010); type: functional;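 further: cells exposed to compound for about 90 hours before reading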
[4] = inhibitors of intracellular T. cruzi replication, confirmation, NIH3T3 host cells, beta-gal luminescence (AID 2044); type: functional, cell-based;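 further: intracellular parasites grown in NIH/3T3 mouse fibroblasts as host cells; luminescent beta-galactosidase reporter signal from transgenic T. cruzi replicating inside host cells; inhibitors lower the luminescence signal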
H9c2 = experiment: cells; type: functional, cell-based; details: Rattus norvegicus, H9c2, Myocardium;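 further: confirmatory concentration-response retest of ultra-high-throughput screening hits for modulation of myocardial damage; cell death induced by hydrogen peroxide oxidative stress; compound pretreatment for 60 min then peroxide exposure for 2 h; potency is for protecting the cells against peroxide damage rather than for killing them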
[5] = Luminescence Cell-Based Dose Confirmation HTS to Identify Activators of 5'UTR Stem-Loop Driven Alpha-Synuclein mRNA Translation in H4 Neuroglioblastoma Cells. [Related pubchem assays: 1829 (Project Summary), 1814 (Primary HTS)]; type: functional
[6] = Luminescence Cell-Based Dose Response HTS to Identify Activators of Luciferase Translation or Activity in H4 […] Cells. [Related pubchem assays: 1829 (Project Summary), 1814 (Primary HTS)]; type: functional
H4 = experiment: Luminescence Cell-Based Dose Response HTS to Identify Activators of 5'UTR Stem-Loop Driven Prion Protein mRNA Translation in H4 Neuroglioblastoma Cells. [Related pubchem assays: 1829 (Project Summary), 1814 (Primary HTS)]; type: functional; details: Homo sapiens
Paired box protein Pax-8 = Paired box protein Pax-8 (Homo sapiens, UniProt Q06710); experiment: inhibitors of PAX8-driven TPO luciferase reporter, dose response, RMG-I cells, cherry-pick (AID 687027); type: functional, cell-based;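 further: luciferase reporter driven by Pax8 target thyroperoxidase promoter measured by SteadyGlo luminescence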
Chain of Paired box protein Pax-8 (Q06710 whole entry): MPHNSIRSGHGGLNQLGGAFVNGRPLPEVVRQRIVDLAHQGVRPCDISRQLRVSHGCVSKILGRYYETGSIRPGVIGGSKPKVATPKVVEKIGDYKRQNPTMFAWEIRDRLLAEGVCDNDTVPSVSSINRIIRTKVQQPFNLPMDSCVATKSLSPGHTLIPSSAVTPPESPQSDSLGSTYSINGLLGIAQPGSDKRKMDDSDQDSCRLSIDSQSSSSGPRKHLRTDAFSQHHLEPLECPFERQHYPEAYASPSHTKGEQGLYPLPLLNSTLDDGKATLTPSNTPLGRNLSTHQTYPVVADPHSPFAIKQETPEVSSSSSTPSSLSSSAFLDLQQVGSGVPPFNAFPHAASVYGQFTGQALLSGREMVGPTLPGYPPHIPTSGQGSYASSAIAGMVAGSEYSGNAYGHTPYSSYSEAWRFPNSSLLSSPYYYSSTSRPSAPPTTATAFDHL

Streptococcus = experiment: Group A Streptococcus viability loss, dose response, counter-screen for streptokinase expression inhibitor project, luminescence, BacTiterGlo (AID 1915); type: functional, organism-based;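 further: potency for reduction of bacterial viability or growth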
[7] = test system: Streptococcus sp. 'group A'; experiment: growth inhibition of control SK(-) GAS strain, dose response, counter-screen for streptokinase expression inhibitor project, luminescence, kanamycin, BacTiterGlo, confirmation (AID 1900); type: functional, organism-based
Protein skinhead-1 = molecular target: T2, Protein skinhead-1 (Caenorhabditis elegans, UniProt P34707); type: functional
T2 sequence (P34707 whole entry): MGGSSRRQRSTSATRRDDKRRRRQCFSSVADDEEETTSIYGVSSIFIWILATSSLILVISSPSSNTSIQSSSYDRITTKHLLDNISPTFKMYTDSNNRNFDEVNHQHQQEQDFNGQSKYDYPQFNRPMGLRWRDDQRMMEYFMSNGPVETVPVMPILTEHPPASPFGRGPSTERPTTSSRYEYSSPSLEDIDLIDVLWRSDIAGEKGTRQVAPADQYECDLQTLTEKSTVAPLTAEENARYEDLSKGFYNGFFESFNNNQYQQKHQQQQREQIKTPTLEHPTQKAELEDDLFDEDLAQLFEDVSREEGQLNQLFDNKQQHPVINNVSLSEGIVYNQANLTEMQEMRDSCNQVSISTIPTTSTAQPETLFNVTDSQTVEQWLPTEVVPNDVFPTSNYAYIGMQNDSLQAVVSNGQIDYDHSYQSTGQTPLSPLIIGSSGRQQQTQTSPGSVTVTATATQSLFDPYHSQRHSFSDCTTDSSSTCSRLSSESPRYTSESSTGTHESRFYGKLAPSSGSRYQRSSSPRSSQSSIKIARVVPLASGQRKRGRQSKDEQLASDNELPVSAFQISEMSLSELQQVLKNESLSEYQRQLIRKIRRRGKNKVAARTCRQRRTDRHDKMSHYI

Row | Structure (SMILES) | EC50 [5] | EC50 [6] | EC50 (H4) | further results
1 | Cc1ccc(-c2cn(S(=O)(=O)c3ccc(C)cc3)nc2N)cc1 | – | – | – | EC50 [1]: > 260 µM (inactive)
2 | CC1=C(Sc2nc3ccccc3[nH]2)C(=O)NC(C)(C)C1 | – | – | – | EC50 [1]: > 260 µM (inactive)
3 | CC(C)(c1ccccc1)c1ccc(OCCCN2CCNCC2)cc1 | – | – | – | AC50 [2]: 0.2 µM (active); EC50 [3]: 15.1 µM (active); EC50 [1]: 60.7 µM (active); EC50 [4]: 2.42 µM (active)
4 | COc1ccc(-c2c(C)c3cc(O)ccc3oc2=O)cc1OC | – | – | – | EC50 [1]: > 260 µM (inactive)
5 | CN(C)N(Cc1ccccc1)C(=O)C(O)(c1ccccc1)c1ccccc1 | – | – | – | IC50 (H9c2): > 79 µM (inactive)
6 | CC(=O)c1ccc(NC(=O)CSc2nc(=O)cc(N)n2-c2ccccc2)cc1 | 22.5 µM (active) | 12.3 µM (active) | 10.9 µM (active) | –
7 | CCOC(=O)C1(Cc2cccc(OC)c2)CCCN(C(=O)c2cc(C)[nH]n2)C1 (centres undefined) | 12.5 µM (active) | 23.2 µM (active) | > 120 µM (not active) | –
8 | C[C@H]1CN([C@@H](C)CO)C(=O)Cc2cc(NC(=O)Nc3ccc(C(F)(F)F)cc3)ccc2O[C@H]1CN(C)C(=O)NC1CCCCC1 | – | – | – | AC50 (Paired box protein Pax-8): 10.2 µM (active)
9 | Cc1ccc(C)c(NC(=O)CSc2nc(O)c3c(C(F)(F)F)cc(-c4cccs4)nc3n2)c1 | – | – | – | EC50 (Streptococcus): 3.04 µM (active); EC50 [7]: 2.45 µM (active); AC50 [2]: 2.92 µM (active)
10 | CCc1n[nH]c(SCc2ccc(OCC(C)C)cc2)n1 | 22.6 µM (active) | 10.2 µM (active) | > 120 µM (not active) | –
11 | COc1cc(/C=C/C(=O)Nc2ccc3nc4n(c(=O)c3c2)CCCC4)cc(OC)c1OC | – | – | – | IC50 (H9c2): > 79 µM (inactive)
12 | O=C1NC(c2ccccc2)=N/C1=C/c1ccco1 | 0.322 µM (active) | 55.5 µM (active) | 5.71 µM (active) | –
13 | O=[N+]([O-])c1cccc(-c2csc(Nc3ccccc3)n2)c1 | – | – | – | AC50 [2]: 4.04 µM (active); IC50 (Protein skinhead-1): > 100 µM (inactive)
14 | Cc1cc(C)nc(NC(=O)CSc2nc3ccccc3s2)n1 | 4.91 µM (active) | 48.4 µM (active) | 15.1 µM (active) | –
15 | CC1(C)CC(=O)c2sc(NC(=O)C(C)(C)C)nc2C1 | 16 µM (active) | 1.31 µM (active) | 18.5 µM (active) | –
16 | O=C(Cn1[nH]c(=O)c2ccccc2c1=O)OCC(=O)N1CCCc2ccccc21 | – | – | – | IC50 (H9c2): > 79 µM (inactive)
